Experimental data taken from US7029916B2, “Apparatus and method for flow electroporation of biological samples” (MAXCYTE, Inc., priority 2001, dated 2006).

Legend:
[1] = tested on: resting Lymphocytes; experiment: Transfection efficiency analysis, resting lymphocytes; assay type: cell-based
Description: Primary lymphocytes were suspended in B&K buffer (125 mM KCl, 15 mM NaCl, 1.2 mM MgCl2, 3 mM glucose, 25 mM Hepes, pH 7.4) cell concentration was set from 1×10^7 cells/mL to 6×10^8 cells/mL together with DNA plasmid from 50 μg/mL to 1 mg/mL. Electroporation, 2.3 kV/cm, 400 μs, 4 pulses for small volume experiments (15 μl) or 2.2 kV/cm, 1.6 ms, 1 pulse for large volume experiments (0.5 mL–2 mL) was performed at room temperature. Following electroporation, cells were incubated in B&K buffer for 20 min at 37° C. for small volume experiments, or diluted by 10× volume of culture medium (RPMI-1640+10% fetal bovine serum+1% Pen-strep+2 mM L-glutamine) for large volume experiments. Cells were cultured in culture medium for various periods (up to 72 hours) and the transfection efficiency was analyzed.
Seven transgenes (Ds-Red, eGFP, βGal, hEndostatin, hEPO, hIFNα, hIL-2) were tested in these experiments. […] When pCMV-Ds-Red or pCMV-EGFP was used, the percentage of the fluorescent cells was counted, by FACS or by manual counting under phase contrast and fluorescence microscope, as the transfection efficiency. […] When pCMV-Endostatin was used, the Endostatin concentration in the supernatant was analyzed by ELISA kit from Cytimmune Sciences, Inc. (College Park, Md.). For pCMV-EPO electroporation, the erythropoietin concentration in the supernatant was analyzed by R&D ELISA kit (Minneapolis, Minn.).

[2] = target: T1, hemoglobin (Homo sapiens, UniProt P68871); settings: relative to DPG; cited from earlier work
[3] = target: T1, hemoglobin; settings: pH 7.4, 37° C.; cited from earlier work

T1 sequence (P69905 2-142 partner limits assumed): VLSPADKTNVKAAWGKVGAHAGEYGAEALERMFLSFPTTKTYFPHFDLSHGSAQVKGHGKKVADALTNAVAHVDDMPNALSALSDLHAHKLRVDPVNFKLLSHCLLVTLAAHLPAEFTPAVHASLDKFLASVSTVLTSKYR
T1 sequence (P68871 2-147 limits assumed): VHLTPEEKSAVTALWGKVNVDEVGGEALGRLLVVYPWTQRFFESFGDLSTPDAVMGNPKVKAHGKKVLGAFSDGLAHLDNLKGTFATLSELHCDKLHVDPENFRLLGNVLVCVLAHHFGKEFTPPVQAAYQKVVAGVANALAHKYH

Compound	Efficiency (% of + cells) [1] [%]	Viability [1] [%]	affinity to hemoglobin, higher than DPG [2] [fold]	P50 of hemoglobin [3] [mm Hg]
βGal	15	40		
O=P(O)(O)O[C@H]1[C@H](OP(=O)(O)O)[C@@H](OP(=O)(O)O)[C@H](OP(=O)(O)O)[C@@H](OP(=O)(O)O)[C@H]1OP(=O)(O)O [IHP, inositol hexaphosphate]			1000	≤ 96.4
